Measured values as given in ChEMBL document CHEMBL1201862, “PubChem BioAssay data set” (2004).
Activity calls are given as the source filed them.

Key:
[1] = target: Voltage-dependent T-type calcium channel subunit alpha-1H (Homo sapiens, UniProt O95180); format: functional;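 note: channel activity triggered by adding a high calcium stimulation buffer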
[2] = target: Eukaryotic translation initiation factor 4H (Homo sapiens, UniProt Q15056); test: eIF4H binding inhibition – biochemical, uHTS, fluorescence polarization, translation initiation inhibitor project, primary screen (AID 2012)
[3] = target: Polyadenylate-binding protein 1 (Homo sapiens, UniProt P11940); test: blockers of PABP interaction with poly(A) – biochemical, fluorescence polarization, […] (AID 2014)
Exodeoxyribonuclease V = target: T1, Exodeoxyribonuclease V (Escherichia coli (strain K12), UniProt P04993+P07648+P08394); test: RecBCD inhibition via phage-restricted bacterial growth – absorbance, V66 E. coli, mutant T4 phage, counter-screen for AddAB inhibitor project, dose response (AID 492957); format: functional, cell-based, Escherichia coli str. K-12 substr. MG1655
T1 sequence (P04993 whole entry): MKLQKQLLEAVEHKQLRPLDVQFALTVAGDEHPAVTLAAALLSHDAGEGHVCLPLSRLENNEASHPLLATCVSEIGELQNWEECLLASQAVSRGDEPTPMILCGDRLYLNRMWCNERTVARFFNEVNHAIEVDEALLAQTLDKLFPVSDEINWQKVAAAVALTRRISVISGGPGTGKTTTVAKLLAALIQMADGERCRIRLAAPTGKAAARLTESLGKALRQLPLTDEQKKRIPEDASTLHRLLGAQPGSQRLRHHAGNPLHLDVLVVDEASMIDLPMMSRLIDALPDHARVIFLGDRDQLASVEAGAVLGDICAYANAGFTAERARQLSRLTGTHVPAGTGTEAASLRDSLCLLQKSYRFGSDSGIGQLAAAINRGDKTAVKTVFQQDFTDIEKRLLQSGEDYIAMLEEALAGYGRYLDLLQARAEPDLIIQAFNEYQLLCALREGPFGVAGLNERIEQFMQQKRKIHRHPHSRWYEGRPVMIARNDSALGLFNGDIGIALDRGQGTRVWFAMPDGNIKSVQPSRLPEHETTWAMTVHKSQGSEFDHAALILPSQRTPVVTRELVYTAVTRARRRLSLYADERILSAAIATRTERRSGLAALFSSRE
T1 sequence (P07648 whole entry): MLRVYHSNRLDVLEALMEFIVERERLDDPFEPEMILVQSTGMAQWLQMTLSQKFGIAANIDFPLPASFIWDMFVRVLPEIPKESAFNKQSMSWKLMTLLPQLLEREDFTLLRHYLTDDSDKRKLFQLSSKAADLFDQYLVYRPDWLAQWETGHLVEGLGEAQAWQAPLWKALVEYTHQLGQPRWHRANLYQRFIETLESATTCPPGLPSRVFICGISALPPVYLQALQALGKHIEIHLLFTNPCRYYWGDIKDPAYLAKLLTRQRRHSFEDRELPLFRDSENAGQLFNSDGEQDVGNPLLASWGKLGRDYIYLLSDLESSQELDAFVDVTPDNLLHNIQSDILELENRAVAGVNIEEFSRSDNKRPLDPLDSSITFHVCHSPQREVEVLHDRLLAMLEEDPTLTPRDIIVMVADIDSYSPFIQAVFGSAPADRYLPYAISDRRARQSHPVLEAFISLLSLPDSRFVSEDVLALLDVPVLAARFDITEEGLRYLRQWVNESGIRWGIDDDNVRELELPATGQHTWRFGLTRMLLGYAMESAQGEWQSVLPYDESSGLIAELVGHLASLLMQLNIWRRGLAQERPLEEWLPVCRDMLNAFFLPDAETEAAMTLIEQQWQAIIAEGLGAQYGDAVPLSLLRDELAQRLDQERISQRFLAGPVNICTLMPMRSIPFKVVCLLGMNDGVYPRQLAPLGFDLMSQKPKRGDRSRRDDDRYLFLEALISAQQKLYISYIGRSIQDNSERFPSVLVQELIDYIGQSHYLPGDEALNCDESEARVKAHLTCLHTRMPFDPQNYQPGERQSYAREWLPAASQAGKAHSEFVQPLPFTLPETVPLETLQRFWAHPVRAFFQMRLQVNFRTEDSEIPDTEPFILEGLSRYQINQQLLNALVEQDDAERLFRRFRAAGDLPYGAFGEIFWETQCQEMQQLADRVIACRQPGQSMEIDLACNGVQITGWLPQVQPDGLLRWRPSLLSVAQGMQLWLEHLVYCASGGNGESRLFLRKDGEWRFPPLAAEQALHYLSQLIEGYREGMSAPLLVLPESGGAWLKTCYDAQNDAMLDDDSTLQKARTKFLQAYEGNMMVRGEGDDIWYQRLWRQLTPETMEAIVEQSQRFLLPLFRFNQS
T1 sequence (P08394 whole entry): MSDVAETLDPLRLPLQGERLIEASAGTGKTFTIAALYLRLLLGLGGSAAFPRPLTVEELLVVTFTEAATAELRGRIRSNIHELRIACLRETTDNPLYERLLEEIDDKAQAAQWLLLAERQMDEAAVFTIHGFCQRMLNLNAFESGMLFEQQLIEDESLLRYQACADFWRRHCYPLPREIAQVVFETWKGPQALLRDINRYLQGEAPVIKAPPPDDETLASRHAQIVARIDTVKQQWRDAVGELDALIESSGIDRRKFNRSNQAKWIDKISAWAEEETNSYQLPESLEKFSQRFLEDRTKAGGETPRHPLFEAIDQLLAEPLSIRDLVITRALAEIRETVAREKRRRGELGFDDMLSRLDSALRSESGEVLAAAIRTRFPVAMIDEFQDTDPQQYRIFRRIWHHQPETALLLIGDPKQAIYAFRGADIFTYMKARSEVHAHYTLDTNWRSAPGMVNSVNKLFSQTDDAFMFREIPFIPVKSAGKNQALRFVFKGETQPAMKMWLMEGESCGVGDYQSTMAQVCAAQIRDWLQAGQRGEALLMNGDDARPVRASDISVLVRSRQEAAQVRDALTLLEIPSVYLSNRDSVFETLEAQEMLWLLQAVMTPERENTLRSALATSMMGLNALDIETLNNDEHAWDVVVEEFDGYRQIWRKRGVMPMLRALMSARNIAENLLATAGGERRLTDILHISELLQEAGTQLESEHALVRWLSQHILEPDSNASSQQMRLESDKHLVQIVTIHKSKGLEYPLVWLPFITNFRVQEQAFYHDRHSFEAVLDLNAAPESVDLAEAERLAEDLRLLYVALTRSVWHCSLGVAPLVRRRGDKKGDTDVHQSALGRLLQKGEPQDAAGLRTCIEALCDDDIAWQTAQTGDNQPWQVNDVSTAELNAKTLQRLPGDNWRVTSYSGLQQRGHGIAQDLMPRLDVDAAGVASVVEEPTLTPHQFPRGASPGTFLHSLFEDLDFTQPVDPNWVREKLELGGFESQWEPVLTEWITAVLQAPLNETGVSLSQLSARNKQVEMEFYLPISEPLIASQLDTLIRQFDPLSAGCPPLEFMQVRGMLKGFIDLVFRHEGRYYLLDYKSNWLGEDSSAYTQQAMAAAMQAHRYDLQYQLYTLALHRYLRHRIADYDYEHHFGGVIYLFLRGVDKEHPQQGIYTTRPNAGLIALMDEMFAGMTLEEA

[4] = Counterscreen for AddAB inhibitors: absorbance-based bacterial cell-based high throughput dose response assay for inhibitors of bacterial viability. [Related pubchem assays (depositor defined):AID435030, AID449728, AID449731, AID488942, AID488955, AID488956]; format: functional
[5] = viability of uninfected HEp-2 cells – cell-based, HTS, cytotoxicity control for RSV inhibitor project, dose response (AID 2410); format: functional; conditions: human respiratory syncytial virus
[6] = reduction of Shn3 3'UTR-driven luciferase in osteoblasts – cell-based, Clone20 osteoblasts, firefly luciferase, cherry-picked, dose response (AID 624132); format: functional;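 note: firefly luciferase luminescence from reporter carrying the Shn3 3'UTR in osteoblasts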
[7] = loss of viability in HepG2 cells – cell-based, CellTiter-Glo, cherry-picked, cytotoxicity control for Shn3 inhibitor project, dose response (AID 624134); format: functional
[8] = non-specific 3'UTR reporter inhibition in Clone20-Shn3RL – cell-based, Renilla luciferase, cherry-picked, counter-screen for Shn3 inhibitor project, dose response (AID 624133); format: functional
SUMO-activating enzyme [9] = target: T2, SUMO-activating enzyme (Homo sapiens, UniProt Q9UBT2); test: blockers of UBC9-mediated SUMO conjugation – biochemical, AlphaScreen, SUMOylation inhibitor project, confirmation (AID 2018); format: functional
SUMO-activating enzyme [10] = target: T2, SUMO-activating enzyme; test: blockers of SAE1/SAE2–UBC9 SUMO transfer – biochemical, HTRF, uHTS, primary screen (AID 2006); format: protein-complex assay
[11] = target: T3, Apoptotic protease-activating factor 1 (Homo sapiens, UniProt O14727); format: functional
T3 sequence (O14727 whole entry): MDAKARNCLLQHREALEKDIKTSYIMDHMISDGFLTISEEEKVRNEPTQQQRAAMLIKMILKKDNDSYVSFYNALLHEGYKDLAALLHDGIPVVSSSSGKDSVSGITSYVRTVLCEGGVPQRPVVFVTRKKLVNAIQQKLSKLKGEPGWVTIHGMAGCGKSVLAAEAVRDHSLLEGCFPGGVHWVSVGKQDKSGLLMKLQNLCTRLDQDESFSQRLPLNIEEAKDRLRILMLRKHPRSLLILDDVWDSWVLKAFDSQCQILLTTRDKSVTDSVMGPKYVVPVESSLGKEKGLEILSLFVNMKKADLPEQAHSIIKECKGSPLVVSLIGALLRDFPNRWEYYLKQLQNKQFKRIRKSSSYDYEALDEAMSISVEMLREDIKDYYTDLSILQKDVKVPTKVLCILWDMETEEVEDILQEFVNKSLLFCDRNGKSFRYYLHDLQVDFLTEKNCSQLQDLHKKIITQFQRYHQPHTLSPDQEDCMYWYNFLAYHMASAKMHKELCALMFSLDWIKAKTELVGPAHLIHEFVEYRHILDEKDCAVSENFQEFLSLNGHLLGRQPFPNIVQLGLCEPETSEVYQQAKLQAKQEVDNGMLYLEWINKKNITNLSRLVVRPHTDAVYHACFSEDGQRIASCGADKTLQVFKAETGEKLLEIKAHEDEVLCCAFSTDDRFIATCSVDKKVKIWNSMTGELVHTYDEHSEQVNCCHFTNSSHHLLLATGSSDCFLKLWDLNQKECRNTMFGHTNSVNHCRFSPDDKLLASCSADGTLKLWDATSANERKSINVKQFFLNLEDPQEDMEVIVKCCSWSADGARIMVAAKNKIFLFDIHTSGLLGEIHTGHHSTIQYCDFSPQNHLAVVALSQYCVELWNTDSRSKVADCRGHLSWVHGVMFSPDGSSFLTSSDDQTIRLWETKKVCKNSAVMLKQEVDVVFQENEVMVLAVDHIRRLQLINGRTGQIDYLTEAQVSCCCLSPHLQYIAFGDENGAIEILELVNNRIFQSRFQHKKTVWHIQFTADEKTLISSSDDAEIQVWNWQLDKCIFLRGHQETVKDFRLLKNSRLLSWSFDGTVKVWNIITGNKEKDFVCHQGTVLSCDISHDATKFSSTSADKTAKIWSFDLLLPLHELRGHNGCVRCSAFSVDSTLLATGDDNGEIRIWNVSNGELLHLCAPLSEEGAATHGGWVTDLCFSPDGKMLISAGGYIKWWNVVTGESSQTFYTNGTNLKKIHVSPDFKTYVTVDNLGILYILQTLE

Genome polyprotein = Genome polyprotein (dengue virus type 2, UniProt P29990); test: flavivirus cap methylation enzyme inhibition – biochemical, confirmation dose response, primary screen (AID 588689); format: functional
[12] = target: T4, Tyrosyl-DNA phosphodiesterase 2 (Homo sapiens, UniProt O95551); test: potency against TDP2 phosphodiesterase activity – biochemical, epi absorbance, IC50, dose response (AID 743297)
T4 sequence (O95551 whole entry): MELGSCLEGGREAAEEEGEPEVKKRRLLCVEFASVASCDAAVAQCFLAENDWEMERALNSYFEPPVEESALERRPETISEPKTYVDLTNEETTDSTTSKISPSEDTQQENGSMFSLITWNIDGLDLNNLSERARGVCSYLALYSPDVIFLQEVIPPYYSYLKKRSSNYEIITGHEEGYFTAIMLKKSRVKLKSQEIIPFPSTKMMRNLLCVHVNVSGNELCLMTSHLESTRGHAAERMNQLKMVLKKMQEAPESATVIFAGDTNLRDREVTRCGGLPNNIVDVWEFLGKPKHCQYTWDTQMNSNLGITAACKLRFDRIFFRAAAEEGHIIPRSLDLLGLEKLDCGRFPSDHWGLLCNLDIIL

[13] = THP-1 cell cytotoxicity, dose response, cytotoxicity control for non-replicating M. tuberculosis project (AID 489025); format: functional
[14] = HepG2 cell cytotoxicity, dose response, cytotoxicity control for non-replicating M. tuberculosis project (AID 489018); format: functional; conditions: Mycobacterium tuberculosis
cells = format: functional
Trypsin = Trypsin (Sus scrofa, UniProt P00761); test: trypsin protease activity blockade – biochemical, quenched peptide fluorescence, cherry-pick, selectivity assay for Rce1 protease inhibitor project, dose response (AID 488789)
Trypsin, sequence (P00761 whole entry): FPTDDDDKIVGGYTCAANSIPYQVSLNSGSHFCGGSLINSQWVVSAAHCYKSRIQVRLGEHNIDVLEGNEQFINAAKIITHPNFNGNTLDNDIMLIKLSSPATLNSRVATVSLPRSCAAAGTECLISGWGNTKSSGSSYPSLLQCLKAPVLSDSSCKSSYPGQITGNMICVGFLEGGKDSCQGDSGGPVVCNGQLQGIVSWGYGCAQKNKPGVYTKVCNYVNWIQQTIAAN

Voltage-dependent T-type calcium channel subunit alpha-1H, sequence (O95180 whole entry): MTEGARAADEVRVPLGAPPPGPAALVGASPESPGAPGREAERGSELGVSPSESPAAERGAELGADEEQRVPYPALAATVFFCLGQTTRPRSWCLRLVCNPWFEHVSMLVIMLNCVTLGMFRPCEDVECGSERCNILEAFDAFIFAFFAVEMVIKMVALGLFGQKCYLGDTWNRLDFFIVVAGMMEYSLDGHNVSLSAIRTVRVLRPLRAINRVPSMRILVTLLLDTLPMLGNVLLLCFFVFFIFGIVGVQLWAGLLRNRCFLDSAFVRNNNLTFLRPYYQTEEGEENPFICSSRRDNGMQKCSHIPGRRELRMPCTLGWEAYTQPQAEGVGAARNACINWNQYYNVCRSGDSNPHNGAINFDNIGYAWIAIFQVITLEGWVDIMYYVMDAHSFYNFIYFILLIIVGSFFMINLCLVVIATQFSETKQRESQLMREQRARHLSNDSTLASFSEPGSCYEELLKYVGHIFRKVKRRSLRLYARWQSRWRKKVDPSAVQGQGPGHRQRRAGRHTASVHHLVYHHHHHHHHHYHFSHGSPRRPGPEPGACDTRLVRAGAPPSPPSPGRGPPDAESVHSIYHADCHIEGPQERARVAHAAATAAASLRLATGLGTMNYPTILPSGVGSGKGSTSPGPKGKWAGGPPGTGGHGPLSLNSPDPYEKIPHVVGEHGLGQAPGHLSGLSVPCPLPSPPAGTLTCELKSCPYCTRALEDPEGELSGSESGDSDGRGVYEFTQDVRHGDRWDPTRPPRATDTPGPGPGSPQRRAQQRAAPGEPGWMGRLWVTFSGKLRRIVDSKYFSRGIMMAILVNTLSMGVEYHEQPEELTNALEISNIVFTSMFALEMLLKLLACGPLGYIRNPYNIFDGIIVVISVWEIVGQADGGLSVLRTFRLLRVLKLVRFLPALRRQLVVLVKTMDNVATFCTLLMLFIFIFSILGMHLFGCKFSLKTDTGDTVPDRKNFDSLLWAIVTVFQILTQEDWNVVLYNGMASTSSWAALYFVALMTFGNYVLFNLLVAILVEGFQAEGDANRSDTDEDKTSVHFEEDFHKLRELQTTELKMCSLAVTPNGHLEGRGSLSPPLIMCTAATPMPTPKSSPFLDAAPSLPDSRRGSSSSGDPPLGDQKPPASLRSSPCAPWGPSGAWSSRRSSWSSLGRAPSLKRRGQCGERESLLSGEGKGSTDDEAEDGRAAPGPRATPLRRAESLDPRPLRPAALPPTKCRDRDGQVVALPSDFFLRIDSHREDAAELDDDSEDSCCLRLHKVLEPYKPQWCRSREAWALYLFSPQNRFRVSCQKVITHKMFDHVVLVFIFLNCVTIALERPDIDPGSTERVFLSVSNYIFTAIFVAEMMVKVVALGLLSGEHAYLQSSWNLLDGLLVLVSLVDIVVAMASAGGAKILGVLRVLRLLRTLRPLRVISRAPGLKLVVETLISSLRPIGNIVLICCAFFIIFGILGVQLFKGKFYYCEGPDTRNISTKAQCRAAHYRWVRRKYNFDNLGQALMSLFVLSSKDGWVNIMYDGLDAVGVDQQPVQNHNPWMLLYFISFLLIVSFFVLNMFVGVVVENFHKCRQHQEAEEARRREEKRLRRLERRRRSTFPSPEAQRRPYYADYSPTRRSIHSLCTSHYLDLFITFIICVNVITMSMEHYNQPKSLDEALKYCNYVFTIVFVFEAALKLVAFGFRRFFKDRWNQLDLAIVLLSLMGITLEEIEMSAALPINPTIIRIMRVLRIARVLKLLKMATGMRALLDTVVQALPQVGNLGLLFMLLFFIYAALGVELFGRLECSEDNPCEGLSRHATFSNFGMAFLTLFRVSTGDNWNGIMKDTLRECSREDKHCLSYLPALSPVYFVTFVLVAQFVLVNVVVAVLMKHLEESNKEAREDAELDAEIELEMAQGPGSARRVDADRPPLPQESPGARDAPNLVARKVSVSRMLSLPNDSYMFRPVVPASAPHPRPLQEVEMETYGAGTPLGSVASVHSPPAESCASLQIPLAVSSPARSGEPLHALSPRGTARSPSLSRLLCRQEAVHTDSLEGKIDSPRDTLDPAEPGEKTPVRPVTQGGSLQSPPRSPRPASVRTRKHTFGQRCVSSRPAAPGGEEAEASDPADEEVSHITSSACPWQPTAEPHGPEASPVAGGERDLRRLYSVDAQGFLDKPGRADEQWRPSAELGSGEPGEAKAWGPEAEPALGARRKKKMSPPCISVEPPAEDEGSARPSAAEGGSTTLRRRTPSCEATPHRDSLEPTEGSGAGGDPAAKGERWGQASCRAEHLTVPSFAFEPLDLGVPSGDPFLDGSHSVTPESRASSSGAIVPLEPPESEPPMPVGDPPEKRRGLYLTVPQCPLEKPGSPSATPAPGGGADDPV
T2 sequence (Q9UBE0 whole entry): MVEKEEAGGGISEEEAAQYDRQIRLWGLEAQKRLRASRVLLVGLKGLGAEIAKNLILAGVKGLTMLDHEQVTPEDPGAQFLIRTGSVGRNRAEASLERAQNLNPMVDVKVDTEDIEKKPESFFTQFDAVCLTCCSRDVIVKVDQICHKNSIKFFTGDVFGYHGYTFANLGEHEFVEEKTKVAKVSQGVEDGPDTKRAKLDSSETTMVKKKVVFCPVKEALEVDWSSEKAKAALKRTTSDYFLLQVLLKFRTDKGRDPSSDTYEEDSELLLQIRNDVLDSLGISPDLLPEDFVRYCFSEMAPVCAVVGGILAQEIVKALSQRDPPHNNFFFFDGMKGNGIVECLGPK
T2 sequence (Q9UBT2 whole entry): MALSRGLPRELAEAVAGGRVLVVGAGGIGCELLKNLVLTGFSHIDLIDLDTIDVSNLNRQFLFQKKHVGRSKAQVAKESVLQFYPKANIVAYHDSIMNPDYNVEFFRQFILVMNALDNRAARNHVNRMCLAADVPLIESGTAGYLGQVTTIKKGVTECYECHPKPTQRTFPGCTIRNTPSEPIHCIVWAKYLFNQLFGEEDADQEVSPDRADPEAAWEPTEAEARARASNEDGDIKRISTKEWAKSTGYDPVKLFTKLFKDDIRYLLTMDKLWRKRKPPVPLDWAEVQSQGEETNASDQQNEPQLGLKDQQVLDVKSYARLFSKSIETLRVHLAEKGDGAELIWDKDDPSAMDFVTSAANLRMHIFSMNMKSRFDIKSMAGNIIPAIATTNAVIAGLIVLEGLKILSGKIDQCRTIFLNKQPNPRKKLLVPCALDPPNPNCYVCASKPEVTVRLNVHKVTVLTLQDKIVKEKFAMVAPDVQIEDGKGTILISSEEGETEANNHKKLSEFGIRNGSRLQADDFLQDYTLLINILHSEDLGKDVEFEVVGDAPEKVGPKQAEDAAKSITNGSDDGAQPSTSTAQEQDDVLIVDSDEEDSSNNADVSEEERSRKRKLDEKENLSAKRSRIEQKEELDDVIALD
Polyadenylate-binding protein 1, sequence (P11940 whole entry): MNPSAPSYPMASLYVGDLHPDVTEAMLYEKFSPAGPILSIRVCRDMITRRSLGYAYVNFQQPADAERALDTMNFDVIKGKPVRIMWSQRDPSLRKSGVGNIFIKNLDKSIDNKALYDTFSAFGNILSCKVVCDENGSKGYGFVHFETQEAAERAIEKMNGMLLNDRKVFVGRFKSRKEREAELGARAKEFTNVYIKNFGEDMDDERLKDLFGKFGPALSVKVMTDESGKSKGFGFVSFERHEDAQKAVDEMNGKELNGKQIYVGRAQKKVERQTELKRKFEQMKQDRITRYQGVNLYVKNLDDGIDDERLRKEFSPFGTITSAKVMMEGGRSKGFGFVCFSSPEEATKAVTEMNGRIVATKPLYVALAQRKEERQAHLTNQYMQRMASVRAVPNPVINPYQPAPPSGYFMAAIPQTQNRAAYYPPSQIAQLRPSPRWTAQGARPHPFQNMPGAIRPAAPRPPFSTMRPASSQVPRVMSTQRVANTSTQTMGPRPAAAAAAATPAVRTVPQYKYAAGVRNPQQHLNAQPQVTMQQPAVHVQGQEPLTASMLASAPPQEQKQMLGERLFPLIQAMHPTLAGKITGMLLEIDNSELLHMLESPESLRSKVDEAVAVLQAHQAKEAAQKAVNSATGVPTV

O=C(Nc1ccc(S(=O)(=O)N2CCCCCC2)cc1)c1ccc(Br)o1
EC50 [1]: 7.13 µM (active)

CCN1CCN(c2nc3ccccc3nc2C(C#N)C(=O)OCc2ccccc2)CC1 (stereo not given)
IC50 [2]: 93.8 µM (active) | IC50 [3]: 44.8 µM (active)

CC1=CC(C)C2C(=O)N(CCC[N+](C)(C)C)C(=O)C2C1 (stereo not given)
IC50 [2]: 97.8 µM (active) | IC50 [3]: 6.94 µM (active)

O=C(Cn1cnc2ccccc21)Nc1ccc2c(c1)OCCCO2
IC50 (Exodeoxyribonuclease V): > 119 µM (inactive) | IC50 [4]: > 119 µM (inactive)

Cc1cccc(NC(=O)CNc2cc(C)ccc2C)c1
EC50 [1]: 15.2 µM (active)

CC(C)(C)n1nnnc1C(c1ccc(C(F)(F)F)cc1)N(Cc1ccc(F)cc1)Cc1ccco1 (stereo not given)
CC50 [5]: 10.3 µM (active) | EC50 [1]: 2.84 µM (active) | AC50 [6]: 10.1 µM (active) | AC50 [7]: 40.3 µM (active) | AC50 [8]: 18.8 µM (active)

Cc1cc(/C=C2\C(=N)N3N=C(c4ccco4)SC3=NC2=O)c(C)n1Cc1ccccc1
IC50 (SUMO-activating enzyme [9]): 8.55 µM (active) | IC50 (SUMO-activating enzyme [10]): 7.54 µM (active)

COc1cc(C(c2c(C)[nH]n(-c3ccccc3)c2=O)c2c(C)[nH]n(-c3ccccc3)c2=O)cc(OC)c1OC
IC50 (SUMO-activating enzyme [9]): 6.66 µM (active) | IC50 (SUMO-activating enzyme [10]): 33.9 µM (active) | IC50 [11]: 24.4 µM (active) | IC50 (Genome polyprotein): 38.3 µM (active) | IC50 [12]: 19.9 µM (inactive)

CC/C(=N\n1nnnc1Nc1ccccc1)c1ccccc1
EC50 [1]: 5.34 µM (active)

COc1ccc(C(=O)Oc2cccc3cccnc23)cc1S(=O)(=O)N1CCOCC1
CC50 [13]: 26.6 µM (active) | CC50 [14]: 18 µM (active) | IC50 (cells): 6.24 µM (active)

COc1c2ccoc2nc2c(OC)cccc12 [GAMMA-FAGARINE]
AC50 (Trypsin): 9.78 µM (active)
